Earlier results in patent US5955321A, “Production and use of compositions comprising high concentrations of vitamin B12 activity” (Gist-Brocades, priority 1996, dated 1999).

Conditions: for stability to light: in isolated form

Compound: 5'desoxyadenosylcobalamin
- stability in aqueous solution: easily transformed to hydroxocobalamin
- stability to light: unstable to light

Compound: C/C1=C2/[N-][C@H]([C@H](CC(N)=O)[C@@]2(C)CCC(=O)NC[C@@H](C)OP(=O)([O-])O[C@H]2[C@@H](O)[C@@H](n3cnc4cc(C)c(C)cc43)O[C@@H]2CO)[C@]2(C)N=C(/C(C)=C3N=C(/C=C4N=C1[C@@H](CCC(N)=O)C\4(C)C)[C@@H](CCC(N)=O)[C@]\3(C)CC(N)=O)[C@@H](CCC(N)=O)[C@]2(C)CC(N)=O.[CH3-].[Co+3] [methylcobalamin]
- stability in aqueous solution: easily transformed to hydroxocobalamin
- stability to light: unstable to light
